The results in this text go back to ChEMBL document CHEMBL5226391, “Valhidepsin Lipopeptides from Chromobacterium vaccinii: Structures, Biosynthesis, and Coregulation with FR900359 Production” (J Nat Prod, 2023).

In data set [1] the test system is Escherichia coli. As to the kind of experiment: Antibacterial activity against Escherichia coli ATCC 25922. Type of data set: functional, organism-based.
Data set [2] deals with NCI-H647. As to the kind of experiment: Antiproliferative activity against human NCI-H647 cells assessed as reduction in cell viability at 50 uM incubated for 72 hrs by cellTiter-glo assay. Type of data set: functional, cell-based. On the technique in general: In ATP-based viability assays light output follows the ATP content of the culture.
Data set [3] deals with Pseudomonas aeruginosa. The experiment in a line: Antibacterial activity against Pseudomonas aeruginosa PA14. The format is functional, organism-based.
In data set [4] the test system is RERF-LC-MS. The experiment in a line: Antiproliferative activity against human RERF-LC-MS cells assessed as reduction in cell viability at 50 uM incubated for 72 hrs by cellTiter-glo assay. The format is functional, cell-based.
The subject of data set [5] is A549. As to the kind of experiment: Antiproliferative activity against human A549 cells assessed as reduction in cell viability at 50 uM incubated for 72 hrs by cellTiter-glo assay. Type of data set: functional, cell-based.
Data set [6] relates to Schizosaccharomyces pombe. As to the kind of experiment: Antifungal activity against Schizosaccharomyces pombe H1374. Type of data set: functional, organism-based.
In data set [7] the test system is Bacillus subtilis. The experiment in a line: Antibacterial activity against Bacillus subtilis ATCC 23857. The format is functional, organism-based.
Data set [8] concerns NCI-H2228. As to the kind of experiment: Antiproliferative activity against human NCI-H2228 cells assessed as reduction in cell viability at 50 uM incubated for 72 hrs by cellTiter-glo assay. Type of data set: functional, cell-based.
Data set [9] has as its system Saccharomyces cerevisiae. The experiment in a line: Antimicrobial activity against Saccharomyces cerevisiae YSD1. The format is functional, organism-based.
A short description of data set [10]: Stability of compound at pH 8.5 assessed as half life measured at 0.5 to 92 hrs by LC-UV/MS analysis. To be noted: buffer, time 0.5-92 hrs. The format is physicochemical.
Data set [11] can be described thus: Stability of compound at pH 7.5 measured at 0.5 to 92 hrs by LC-UV/MS analysis. Type of data set: physicochemical. To be noted: buffer, time 0.5-92 hrs.
Data set [12] in a line: Stability of compound at pH 8 assessed as half life measured at 0.5 to 92 hrs by LC-UV/MS analysis. The format is physicochemical. To be noted: buffer, time 0.5-92 hrs.
Data set [13] can be described thus: Stability of compound at pH 9 assessed as half life measured at 0.5 to 92 hrs by LC-UV/MS analysis. Type of data set: physicochemical. The settings on record: buffer, time 0.5-92 hrs.

Active and inactive are the calls of the source. The rule behind the calls is not given here.

Turning to `CCCCCC/C=C\CC(=O)N[C@@H](CO)C(=O)N[C@@H](C(=O)N[C@@H](Cc1c[nH]cn1)C(=O)N[C@H](C(=O)N[C@H](CC(C)C)C(=O)N[C@H](C(=O)O)C(C)C)C(C)C)C(C)C`, the outcome in data set [1], in data set [2], in [3], in [4], in [5] and in data set [6] was inactive. Besides, the result in data set [7], in [8] and in [9] was inactive.
Usually half-life stands for how long it takes for the measured level to halve. `CCCCCC/C=C\CC(=O)N[C@H]1COC(=O)[C@H](C(C)C)NC(=O)[C@@H](CC(C)C)NC(=O)[C@H](C(C)C)NC(=O)[C@H](Cc2c[nH]cn2)NC(=O)[C@@H](C(C)C)NC1=O`: the outcome in [1] and in data set [3] was inactive. In addition, the half-life in data set [10] is 26 h; in data set [12], 5 h; in data set [13], 7 h. Further, the outcome in [2], in data set [4], in data set [5], in data set [6], in data set [7] and in data set [8] was Active. In [9], the outcome was Active. Besides, the Stability entry in data set [11] is reported as “Stable”.
